Tests used:
Vasopressin V1a receptor = Vasopressin V1a receptor (Homo sapiens, UniProt P37288); format: cell membranes, Membrane; conditions: hek293; also: in other assays of this panel Not Active means under 50% inhibition at 10 µM
[1] = target: T1, C-C chemokine receptor type 4 (Homo sapiens, UniProt P51679); format: cell membranes, Membrane; conditions: chem-1; also: in other assays of this panel Not Active means under 50% inhibition at 10 µM
T1 sequence (P51679 whole entry): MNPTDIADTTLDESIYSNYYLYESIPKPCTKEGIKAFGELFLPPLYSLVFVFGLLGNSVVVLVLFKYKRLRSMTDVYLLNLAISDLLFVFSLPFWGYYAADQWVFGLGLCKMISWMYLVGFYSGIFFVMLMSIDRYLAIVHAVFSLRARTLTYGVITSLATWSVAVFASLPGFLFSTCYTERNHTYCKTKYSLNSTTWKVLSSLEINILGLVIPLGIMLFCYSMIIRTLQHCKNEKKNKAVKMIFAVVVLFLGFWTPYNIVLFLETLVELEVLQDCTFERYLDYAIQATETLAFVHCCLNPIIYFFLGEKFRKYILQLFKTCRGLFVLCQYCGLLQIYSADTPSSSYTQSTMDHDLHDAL

[2] = target: C-C chemokine receptor type 5 (Homo sapiens, UniProt P51681); format: cell membranes, Membrane; conditions: hek293; also: in other assays of this panel Not Active means under 50% inhibition at 10 µM
C-C chemokine receptor type 5, sequence (P51681 whole entry): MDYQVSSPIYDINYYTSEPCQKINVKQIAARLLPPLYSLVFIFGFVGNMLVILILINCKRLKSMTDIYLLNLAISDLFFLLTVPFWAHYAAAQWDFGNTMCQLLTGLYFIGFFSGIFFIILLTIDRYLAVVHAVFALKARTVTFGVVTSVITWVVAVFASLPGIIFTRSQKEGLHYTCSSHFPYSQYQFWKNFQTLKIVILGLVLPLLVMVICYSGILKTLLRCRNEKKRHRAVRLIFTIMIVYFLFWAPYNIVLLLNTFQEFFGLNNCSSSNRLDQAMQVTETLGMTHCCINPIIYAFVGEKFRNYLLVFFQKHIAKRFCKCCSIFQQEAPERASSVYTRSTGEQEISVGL

D(3) dopamine receptor = D(3) dopamine receptor (Homo sapiens, UniProt P35462); assay: DRUGMATRIX: Dopamine D3 radioligand binding (ligand: [3H] Spiperone); format: cell membranes, CHO, Membrane; conditions: for Ki: read-out: Ki
D(3) dopamine receptor, sequence (P35462 whole entry): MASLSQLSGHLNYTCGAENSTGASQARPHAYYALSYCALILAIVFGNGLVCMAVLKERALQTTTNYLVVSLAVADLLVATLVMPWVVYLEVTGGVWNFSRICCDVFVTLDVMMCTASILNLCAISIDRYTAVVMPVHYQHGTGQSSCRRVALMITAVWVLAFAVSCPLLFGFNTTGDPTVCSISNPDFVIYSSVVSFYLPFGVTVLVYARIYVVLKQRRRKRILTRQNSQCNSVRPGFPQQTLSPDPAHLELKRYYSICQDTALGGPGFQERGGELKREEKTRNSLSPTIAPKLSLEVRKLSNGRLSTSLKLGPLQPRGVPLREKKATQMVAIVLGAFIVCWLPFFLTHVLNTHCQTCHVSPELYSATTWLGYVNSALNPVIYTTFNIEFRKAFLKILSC

Glycine receptor = Glycine receptor (Rattus norvegicus, UniProt P22771+P24524+P07727+P20781); format: cell membranes, Wistar, Spinal cord, Membrane; also: in other assays of this panel Not Active means under 50% inhibition at 10 µM
Progesterone receptor = target: T2, Progesterone receptor (Bos taurus, UniProt Q690N0); assay: DRUGMATRIX: Progesterone radioligand binding (ligand: [3H] R-5020); format: tissue-based, Uterus; conditions: Not Active = under 50% inhibition at 10 µM
T2 sequence (Q690N0 whole entry): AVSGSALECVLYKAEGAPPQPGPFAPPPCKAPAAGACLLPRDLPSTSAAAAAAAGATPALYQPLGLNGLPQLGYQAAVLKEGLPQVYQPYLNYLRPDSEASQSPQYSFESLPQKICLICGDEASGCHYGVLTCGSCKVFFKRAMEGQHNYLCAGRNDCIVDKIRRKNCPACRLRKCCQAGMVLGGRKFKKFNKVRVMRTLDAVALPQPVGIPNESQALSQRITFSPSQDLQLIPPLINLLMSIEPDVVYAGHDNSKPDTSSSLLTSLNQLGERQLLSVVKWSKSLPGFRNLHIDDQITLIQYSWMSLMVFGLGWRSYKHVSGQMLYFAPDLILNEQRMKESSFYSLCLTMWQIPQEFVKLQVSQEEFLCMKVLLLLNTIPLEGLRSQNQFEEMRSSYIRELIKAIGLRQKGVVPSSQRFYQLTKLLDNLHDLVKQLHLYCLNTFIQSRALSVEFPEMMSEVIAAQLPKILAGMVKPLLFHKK

Cytochrome P450 2E1 = Cytochrome P450 2E1 (Homo sapiens, UniProt P05181); conditions: bti-tn-5b1-4; also: in other assays of this panel Not Active means under 50% inhibition at 10 µM
Cytochrome P450 2E1, sequence (P05181 whole entry): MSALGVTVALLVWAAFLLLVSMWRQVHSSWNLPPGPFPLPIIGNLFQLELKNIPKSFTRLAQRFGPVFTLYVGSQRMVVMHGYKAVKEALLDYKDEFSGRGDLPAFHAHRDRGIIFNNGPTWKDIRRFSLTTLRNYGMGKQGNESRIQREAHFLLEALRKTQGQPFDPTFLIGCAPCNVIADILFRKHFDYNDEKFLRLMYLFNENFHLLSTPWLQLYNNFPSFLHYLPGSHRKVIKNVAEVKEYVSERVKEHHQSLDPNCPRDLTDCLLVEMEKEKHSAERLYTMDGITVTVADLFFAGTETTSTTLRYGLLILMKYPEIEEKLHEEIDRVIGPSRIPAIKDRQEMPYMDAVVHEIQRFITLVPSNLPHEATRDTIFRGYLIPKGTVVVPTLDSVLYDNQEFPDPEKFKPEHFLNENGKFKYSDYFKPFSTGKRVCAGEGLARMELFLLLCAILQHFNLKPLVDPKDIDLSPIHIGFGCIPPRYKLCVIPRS

Glucocorticoid receptor = target: T3, Glucocorticoid receptor (Homo sapiens, UniProt P04150); conditions: hela s3; also: in other assays of this panel Not Active means under 50% inhibition at 10 µM
T3 sequence (P04150 whole entry): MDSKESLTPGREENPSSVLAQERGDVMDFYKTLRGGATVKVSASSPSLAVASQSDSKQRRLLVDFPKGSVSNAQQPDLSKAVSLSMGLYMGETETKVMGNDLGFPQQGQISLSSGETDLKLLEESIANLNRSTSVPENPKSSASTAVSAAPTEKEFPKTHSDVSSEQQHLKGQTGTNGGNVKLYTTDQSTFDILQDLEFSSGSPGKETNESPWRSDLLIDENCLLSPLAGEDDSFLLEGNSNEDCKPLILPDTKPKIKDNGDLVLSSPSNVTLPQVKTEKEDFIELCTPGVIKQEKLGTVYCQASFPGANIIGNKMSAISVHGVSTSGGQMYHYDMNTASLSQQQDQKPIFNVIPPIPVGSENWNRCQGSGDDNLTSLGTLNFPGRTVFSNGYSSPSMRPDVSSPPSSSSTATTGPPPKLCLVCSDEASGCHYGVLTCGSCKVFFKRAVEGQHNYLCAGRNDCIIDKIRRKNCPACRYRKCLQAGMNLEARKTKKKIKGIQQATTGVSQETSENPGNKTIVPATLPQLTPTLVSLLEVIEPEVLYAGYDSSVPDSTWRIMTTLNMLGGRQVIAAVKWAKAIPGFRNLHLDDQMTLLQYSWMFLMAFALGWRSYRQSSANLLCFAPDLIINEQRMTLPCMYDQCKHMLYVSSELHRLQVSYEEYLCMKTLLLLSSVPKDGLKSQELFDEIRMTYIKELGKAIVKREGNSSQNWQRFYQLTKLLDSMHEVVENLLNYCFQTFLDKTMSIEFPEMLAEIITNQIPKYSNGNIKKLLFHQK

Vasopressin V1a receptor, sequence (P37288 whole entry): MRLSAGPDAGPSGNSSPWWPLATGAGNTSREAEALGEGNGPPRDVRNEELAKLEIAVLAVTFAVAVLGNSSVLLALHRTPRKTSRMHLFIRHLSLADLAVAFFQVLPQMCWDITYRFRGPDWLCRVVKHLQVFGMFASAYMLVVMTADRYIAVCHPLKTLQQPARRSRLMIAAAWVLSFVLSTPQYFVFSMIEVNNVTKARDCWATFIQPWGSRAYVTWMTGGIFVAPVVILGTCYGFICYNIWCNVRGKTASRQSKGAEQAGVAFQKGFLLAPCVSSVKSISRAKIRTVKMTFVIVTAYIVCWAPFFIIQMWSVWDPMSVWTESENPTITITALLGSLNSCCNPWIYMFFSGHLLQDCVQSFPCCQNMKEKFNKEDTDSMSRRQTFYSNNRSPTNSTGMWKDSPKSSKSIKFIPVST

Row | Compound | IC50 (Vasopressin V1a receptor) | IC50 [1] | IC50 [2] | IC50 (D(3) dopamine receptor; cho) | IC50 (Glycine receptor) | IC50 (Progesterone receptor) | IC50 (Cytochrome P450 2E1) | Ki (Cytochrome P450 2E1) | IC50 (Glucocorticoid receptor) | IC50 (D(3) dopamine receptor; read-out: IC50) [µM] | Ki (D(3) dopamine receptor) [µM]
1 | CO[C@H]1[C@@H](O)[C@H](N)[C@@H](O[C@H]2O[C@H]([C@H](C)N)CC[C@H]2N)[C@H](O)[C@@H]1N(C)C(=O)CN [ASTROMICIN] | Not Active | Not Active | Not Active | Not Active | Not Active | Not Active | Not Active | Not Active | Not Active | – | –
2 | CC(C)(C)c1ccc(S(=O)(=O)/C=C/C#N)cc1 [BAY-11-7085] | Not Active | Not Active | Not Active | – | Not Active | Not Active | Not Active | Not Active | Not Active | 3.46 | 1.17
3 | CCc1oc2ccccc2c1C(=O)c1cc(Br)c(O)c(Br)c1 [BENZBROMARONE] | Not Active | Not Active | Not Active | Not Active | Not Active | Not Active | Not Active | Not Active | Not Active | – | –
4 | CC(C)C[C@H]1C(=O)N2CCC[C@H]2[C@]2(O)O[C@](NC(=O)[C@@H]3C=C4c5cccc6[nH]c(Br)c(c56)C[C@H]4N(C)C3)(C(C)C)C(=O)N12 [BROMOCRIPTINE] | Not Active | Not Active | Not Active | – | Not Active | Not Active | Not Active | Not Active | Not Active | 0.000596 | 0.000202
5 | O=C(/C=C/c1ccc(O)c(O)c1)OCCc1ccccc1 [CAFFEIC ACID PHENETHYL ESTER] | Not Active | Not Active | Not Active | Not Active | Not Active | Not Active | Not Active | Not Active | Not Active | – | –
6 | COc1cc(CNC(=O)CCCC/C=C/C(C)C)ccc1O [CAPSAICIN] | Not Active | Not Active | Not Active | Not Active | Not Active | Not Active | Not Active | Not Active | Not Active | – | –
7 | CCOC(=O)n1ccn(C)c1=S [CARBIMAZOLE] | Not Active | Not Active | Not Active | Not Active | Not Active | Not Active | Not Active | Not Active | Not Active | – | –
8 | Oc1ccccc1O [CATECHOL] | Not Active | Not Active | Not Active | Not Active | Not Active | Not Active | Not Active | Not Active | Not Active | – | –
9 | CO[C@@]1(NC(=O)CSCC#N)C(=O)N2C(C(=O)O)=C(CSc3nnnn3C)CS[C@@H]21 [CEFMETAZOLE] | Not Active | Not Active | Not Active | Not Active | Not Active | Not Active | Not Active | Not Active | Not Active | – | –
10 | CN(C(=O)CCCOc1ccc2[nH]c(=O)ccc2c1)C1CCCCC1 [CILOSTAMIDE] | Not Active | Not Active | Not Active | Not Active | Not Active | Not Active | Not Active | Not Active | Not Active | – | –
11 | CC(C)(Oc1ccc(C2CC2(Cl)Cl)cc1)C(=O)O (stereo not drawn) [CIPROFIBRATE] | Not Active | Not Active | Not Active | Not Active | Not Active | Not Active | Not Active | Not Active | Not Active | – | –
12 | Nc1nc(Cl)nc2c1ncn2[C@H]1C[C@H](O)[C@@H](CO)O1 [CLADRIBINE] | Not Active | Not Active | Not Active | Not Active | Not Active | Not Active | Not Active | Not Active | Not Active | – | –
13 | CC[C@H]1OC(=O)[C@H](C)[C@@H](O[C@H]2C[C@@](C)(OC)[C@@H](O)[C@H](C)O2)[C@H](C)[C@@H](O[C@@H]2O[C@H](C)C[C@H](N(C)C)[C@H]2O)[C@](C)(OC)C[C@@H](C)C(=O)[C@H](C)[C@@H](O)[C@]1(C)O [CLARITHROMYCIN] | Not Active | Not Active | Not Active | Not Active | Not Active | Not Active | Not Active | Not Active | Not Active | – | –
14 | O=P1(N(CCCl)CCCl)NCCCO1 (stereo not drawn) [CYCLOPHOSPHAMIDE ANHYDROUS] | Not Active | Not Active | Not Active | Not Active | Not Active | Not Active | Not Active | Not Active | Not Active | – | –
15 | Nc1nc(N)nc(NC2CC2)n1 [CYROMAZINE] | Not Active | Not Active | Not Active | Not Active | Not Active | Not Active | Not Active | Not Active | Not Active | – | –
16 | CCN[C@@H](C)Cc1cccc(C(F)(F)F)c1 [DEXFENFLURAMINE] | Not Active | Not Active | Not Active | Not Active | Not Active | Not Active | Not Active | Not Active | Not Active | – | –
17 | CN1C(=O)CN=C(c2ccccc2)c2cc(Cl)ccc21 [DIAZEPAM] | Not Active | Not Active | Not Active | Not Active | Not Active | Not Active | Not Active | Not Active | Not Active | – | –
18 | CN1C[C@H](C(=O)N[C@]2(C)O[C@@]3(O)[C@@H]4CCCN4C(=O)[C@H](Cc4ccccc4)N3C2=O)C[C@@H]2c3cccc4[nH]cc(c34)C[C@H]21 [DIHYDROERGOTAMINE] | Not Active | Not Active | Not Active | – | Not Active | Not Active | Not Active | Not Active | Not Active | 0.00534 | 0.00181
19 | Cc1c(N(C)CS(=O)(=O)[O-])c(=O)n(-c2ccccc2)n1C.[Na+] [DIPYRONE SODIUM] | Not Active | Not Active | Not Active | Not Active | Not Active | Not Active | Not Active | Not Active | Not Active | – | –
20 | CC(CCc1ccc(O)cc1)NCCc1ccc(O)c(O)c1 (stereo not drawn) [DOBUTAMINE] | Not Active | Not Active | Not Active | – | Not Active | Not Active | Not Active | Not Active | Not Active | 4.99 | 1.69
21 | CCC(=O)O[C@H]1[C@H](O[C@@H]2[C@@H](C)[C@H](O[C@H]3C[C@@](C)(OC)[C@@H](O)[C@H](C)O3)[C@@H](C)C(=O)O[C@H](CC)[C@@](C)(O)[C@H](O)[C@@H](C)C(=O)[C@H](C)C[C@@]2(C)O)O[C@H](C)C[C@@H]1N(C)C [ERYTHROMYCIN PROPIONATE] | Not Active | Not Active | Not Active | Not Active | Not Active | Not Active | Not Active | Not Active | Not Active | – | –
